Test results reported in ChEMBL document CHEMBL1201862, “PubChem BioAssay data set” (2004).
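48-hour exposure; five concentrations; linearly interpolated endpoints. GI50: concentration for 50% inhibition of growth.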 Activity calls are given as the source filed them. Cut-off read from the data, not from the text of the source: active = GI50 up to about 1.1 µM and inactive = higher.

Legend:
Test in all cases: DTP human tumour cell line panel, 48 h
OVCAR-5 = system: OVCAR-5
SF-539 = system: SF-539
SW-620 = system: SW-620
SNB-19 = system: SNB-19
NCI-H460 = system: NCI-H460
HL-60 = system: HL-60
U-251 = system: U-251
RPMI-8226 = system: RPMI-8226
NCI-H522 = system: NCI-H522
NCI-H226 = system: NCI-H226
Malme-3M = system: Malme-3M
HOP-92 = system: HOP-92
CAKI-1 = system: CAKI-1
SR = system: SR
HCC 2998 = system: HCC 2998
RXF 393 = system: RXF 393

SMILES | GI50 (OVCAR-5) | GI50 (SF-539) | GI50 (SW-620) | GI50 (SNB-19) | GI50 (NCI-H460) | GI50 (HL-60) | GI50 (U-251) | GI50 (RPMI-8226) | GI50 (NCI-H522) | GI50 (NCI-H226) | GI50 (Malme-3M) | GI50 (HOP-92) | GI50 (CAKI-1) | GI50 (SR) | GI50 (HCC 2998) | GI50 (RXF 393)
CN(C)CCNc1ccc2ncn3c4ccccc4c(=O)c1c23 | 1.66 µM (inactive) | 3.62 µM (inactive) | 0.826 µM (active) | 7.96 µM (inactive) | 0.805 µM (active) | 7.73 µM (inactive) | 3.02 µM (inactive) | 2.84 µM (inactive) | 1.29 µM (inactive) | 1.91 µM (inactive) | 2.34 µM (inactive) | 2.3 µM (inactive) | 2.26 µM (inactive) | 0.822 µM (active) | – | –
C[N+]1=C(c2cccnc2/C=N/O)OCC1(C)C | > 100 µM (inactive) | > 100 µM (inactive) | > 100 µM (inactive) | > 100 µM (inactive) | > 100 µM (inactive) | > 100 µM (inactive) | > 100 µM (inactive) | – | > 100 µM (inactive) | < 0.01 µM (active) | > 100 µM (inactive) | > 100 µM (inactive) | > 100 µM (inactive) | > 100 µM (inactive) | > 100 µM (inactive) | > 100 µM (inactive)
COC(=O)C1C(=O)N(CCc2c[nH]c3ccccc23)C[C@@H]2CCC(=O)C[C@H]12 (stereo partly drawn) | – | > 100 µM (inactive) | > 100 µM (inactive) | > 100 µM (inactive) | > 100 µM (inactive) | > 100 µM (inactive) | > 100 µM (inactive) | > 100 µM (inactive) | > 100 µM (inactive) | – | > 100 µM (inactive) | > 100 µM (inactive) | > 100 µM (inactive) | – | > 100 µM (inactive) | > 100 µM (inactive)
CC1(C)CC(=O)C(=[N+]=[N-])C(=O)C1 | > 100 µM (inactive) | > 100 µM (inactive) | > 100 µM (inactive) | > 100 µM (inactive) | – | > 100 µM (inactive) | – | > 100 µM (inactive) | > 100 µM (inactive) | > 100 µM (inactive) | > 100 µM (inactive) | > 100 µM (inactive) | > 100 µM (inactive) | – | > 100 µM (inactive) | > 100 µM (inactive)
O=C1CC(c2ccc(Cl)cc2)=Nc2ccccc2N1 | > 100 µM (inactive) | 96.6 µM (inactive) | 18.8 µM (inactive) | 51.6 µM (inactive) | 34.7 µM (inactive) | 19.3 µM (inactive) | 20.7 µM (inactive) | – | 40.9 µM (inactive) | > 100 µM (inactive) | > 100 µM (inactive) | 26.4 µM (inactive) | > 100 µM (inactive) | 37.8 µM (inactive) | 97.1 µM (inactive) | 29.9 µM (inactive)
COc1ccc(/C=c2/sc3n(c2=O)NC2(CCCCC2)NN=3)cc1 | > 100 µM (inactive) | > 100 µM (inactive) | > 100 µM (inactive) | > 100 µM (inactive) | > 100 µM (inactive) | – | > 10 µM (inactive) | – | > 100 µM (inactive) | > 100 µM (inactive) | > 100 µM (inactive) | > 100 µM (inactive) | > 100 µM (inactive) | > 100 µM (inactive) | > 100 µM (inactive) | > 100 µM (inactive)
C=CCO/N=C(\OC(=O)c1ccc([N+](=O)[O-])cc1)c1ccccc1 | > 100 µM (inactive) | > 100 µM (inactive) | > 100 µM (inactive) | > 100 µM (inactive) | > 100 µM (inactive) | – | > 100 µM (inactive) | > 100 µM (inactive) | – | > 100 µM (inactive) | > 100 µM (inactive) | > 100 µM (inactive) | > 100 µM (inactive) | – | > 100 µM (inactive) | –
NC(=O)c1ccc(Cl)c([N+](=O)[O-])c1 | > 100 µM (inactive) | > 100 µM (inactive) | > 100 µM (inactive) | > 100 µM (inactive) | > 100 µM (inactive) | > 100 µM (inactive) | > 100 µM (inactive) | > 10 µM (inactive) | 48.9 µM (inactive) | > 100 µM (inactive) | > 100 µM (inactive) | > 100 µM (inactive) | > 100 µM (inactive) | – | > 100 µM (inactive) | > 100 µM (inactive)
N#Cc1ccc(OCCSCCCCCCCCCCSCCOc2ccc(C#N)cc2)cc1 | > 100 µM (inactive) | > 100 µM (inactive) | > 100 µM (inactive) | – | > 100 µM (inactive) | > 100 µM (inactive) | > 100 µM (inactive) | > 100 µM (inactive) | 29.6 µM (inactive) | > 100 µM (inactive) | > 100 µM (inactive) | – | – | – | > 100 µM (inactive) | > 100 µM (inactive)
COC(=O)C1=CC2OC1(C)C1(CC1)C2=O (stereo not drawn) | 23.8 µM (inactive) | 17.6 µM (inactive) | 14.7 µM (inactive) | > 100 µM (inactive) | 22.6 µM (inactive) | 4.02 µM (inactive) | > 100 µM (inactive) | 6.85 µM (inactive) | 5.73 µM (inactive) | 21.6 µM (inactive) | 11.7 µM (inactive) | – | 16 µM (inactive) | 10.3 µM (inactive) | 18.3 µM (inactive) | 15.5 µM (inactive)
